# Experimental data published in US11078158B2, “(+)-3-(2,3-difluorophenyl)-3-methoxypyrrolidine or pharmaceutically acceptable salts thereof, a process for preparation thereof and uses thereof” (INTEGRATIVE RESEARCH LABORATORIES SWEDEN AB, priority 2017, dated 2021).
# Tests used:
# [1] = Flask method water solubility test; format: physicochemical; settings: saturated solution equilibrated at least 24 hours, room temperature
# Experimental: In some cases, a further water solubility test (Flask method water solubility test) was performed as follows. An excess of salt was added to water. The mixture was equilibrated (shaking) for at least 24 hours thereby providing a saturated salt solution. Then the saturated solution was clear-filtered and transferred into a clean pre-weighed flask (mv). The mass of flask+saturated solution (mvs) was recorded. The solvent was evaporated under reduced pressure until constant mass. Flask containing dried residue was weighed (mvdr). The solubility expressed as “grams of solute/kg of solvent”, i.e. “grams of salt/kg of solvent”, was calculated according to the equation: […]
# (mvdr-mv) is the weight difference in kg between (i) the mass of the flask containing dried residue after evaporation of the solvent and (ii) the mass of the flask, and
# (mvs-mvdr) is the weight difference in kg between (i) the mass of the flask including the saturated salt solution and (ii) the mass of the flask containing the dried residue.
# [2] = Crystalline phase at tested relative humidity; format: physicochemical; settings: any tested relative humidity
# human sigma 1 receptor = molecular target: T1, human sigma 1 receptor (Homo sapiens, UniProt Q99720); assay: In vitro competition binding assay, human sigma 1 receptor; settings: 1.0 E-5 M test compound, 15 nM [3H] pentazocine, duplicate, mean value; read-out: Percent inhibition of the control radioligand specific binding
# T1 construct: Cell membrane homogenates (150 μg protein) were incubated for 120 min at 37° C. with 15 nM; endogenous in cells; inferred to be Jurkat human T lymphocytes from the cited method (Ganapathy et al. 1999)
# T1 sequence (Q99720 whole entry): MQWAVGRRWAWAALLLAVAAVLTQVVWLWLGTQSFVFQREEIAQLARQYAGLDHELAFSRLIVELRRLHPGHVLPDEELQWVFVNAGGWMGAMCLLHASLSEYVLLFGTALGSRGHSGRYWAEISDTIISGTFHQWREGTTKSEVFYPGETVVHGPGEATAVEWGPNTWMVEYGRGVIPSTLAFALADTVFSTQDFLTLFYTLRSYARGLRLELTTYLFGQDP
# Experimental: The binding affinity of the fumaric acid salt of (+)-3-(2,3-difluorophenyl)-3-methoxypyrrolidine at the human sigma 1 receptor was determined by a competition binding assay similar to what is described in […], M. E., PRASAD, P. D., HUANG, W., SETH, P., LEIBACH, F. H. and […], V. (1999), Molecular and ligand-binding characterization of the σ-receptor in the Jurkat human T lymphocyte cell line, J. Pharmacol. Exp. Ther., 289: 251.
# Cell membrane homogenates (150 μg protein) were incubated for 120 min at 37° C. with 15 nM [^3H] pentazocine in the absence or presence of the test compound in a buffer containing 50 mM Tris-HCl (pH 8).
# Nonspecific binding was determined in the presence of 10 μM haloperidol.
# Following incubation, the samples were filtered under vacuum through glass fiber filters (GF/B, Packard) presoaked with 0.3% PEI and rinsed several times with ice-cold 50 mM Tris-HCl using a 96-sample cell harvester (Unifilter, Packard). The filters were dried then counted for radioactivity in a scintillation counter (Topcount, Packard) using a scintillation cocktail (Microscint 0, Packard).
# The results were expressed as a percent inhibition of the control radioligand specific binding.
# The standard reference compound was haloperidol, which was tested in each experiment at several concentrations to obtain a competition curve from which its IC50 value was calculated. […]
# [3] = Regular water solubility test; format: physicochemical; settings: thermodynamic from solid, room temperature
# Experimental: Water solubility tests for the salts as described herein were performed as follows unless otherwise stated. 0.05 g of each salt was weighed in a flask and the mass of flask+salt (m-vs) was recorded. Water was slowly added dropwise into the flask with salt until full dissolution was achieved as observed by the naked eye. The mass of flask+salt+solvent (m-sys) was recorded.
# (s) stands for the weight of the salt measured in kg,
# (m-sys) stands for the mass of the flask+salt+solvent measured in kg, and
# (m-vs) stands for the mass of the flask+salt measured in kg.
# Hygroscopicity test = format: physicochemical; settings: 30° C., one week; for hygroscopicity (in words): any tested relative humidity
# Experimental: Hygroscopicity tests of the salts were performed by keeping exact weight samples of the different salts at varied humidity at 30° C. After one week, the samples were weighed again and based on the original weight the percentage weight difference was calculated.
# In the followed hygroscopicity test, the change in weight was measured after each acidic salt of (+)-3-(2,3-difluorophenyl)-3-methoxypyrrolidine was exposed for a week under the condition of 30° C. and different relative humidities (RH) 0 to 97%.
SMILES,"solubility ([1]; water, thermodynamic from solid) [mg/mL]",change of crystalline phase with humidity (in words) [2],inhibition at 10 µM (human sigma 1 receptor) [%],solubility [3] [mg/mL],hygroscopicity (in words) (Hygroscopicity test; listed as Example 11),hygroscopicity (in words) (Hygroscopicity test; listed as salt of Formula IIb),Weight difference (%) (Hygroscopicity test; relative humidity 0%),Weight difference (%) (Hygroscopicity test; relative humidity 6%),Weight difference (%) (Hygroscopicity test; relative humidity 11%),Weight difference (%) (Hygroscopicity test; relative humidity 22%),Weight difference (%) (Hygroscopicity test; relative humidity 32%),Weight difference (%) (Hygroscopicity test; relative humidity 43%),Weight difference (%) (Hygroscopicity test; relative humidity 56%),Weight difference (%) (Hygroscopicity test; relative humidity 73%),Weight difference (%) (Hygroscopicity test; relative humidity 84%),Weight difference (%) (Hygroscopicity test; relative humidity 97%),Solubility in water (Flask method water solubility test) [1] [mg/mL]
"CO[C@]1(c2cccc(F)c2F)CCNC1.O=C(O)/C=C/C(=O)O [Example 7, fumarate Salt of (+)-3-(2,3-difluorophenyl)-3-methoxypyrrolidine]",74.1,not changing in its crystalline phase at any tested relative humidity,79.1,34,does not adsorb or desorb water at any humidity,not being hygroscopic,−0.07,−0.14,0.11,0.15,0.13,0.07,0.19,0.06,0.00,0.16,–
"COC1(c2cccc(F)c2F)CCNC1.Cl (stereo not drawn) [Example 8, Hydrochloric Acid Salt of (+)-3-(2,3-difluorophenyl)-3-methoxypyrrolidine]",–,–,–,–,–,–,0.00,−0.07,−0.06,−0.15,0.00,−0.13,−0.14,−0.13,25.77,99.12,–
"COC1(c2cccc(F)c2F)CCNC1.O=C(O)C(O)C(O)C(=O)O [Example 9, L-Tartaric acid salt of (+)-3-(2,3-difluorophenyl)-3-methoxypyrrolidine]",–,–,–,–,–,–,−2.36,−0.67,−0.14,2.40,2.16,1.71,1.99,1.90,2.13,2.39,–
"COC1(c2cccc(F)c2F)CCNC1.O=C(O)C[C@H](O)C(=O)O [Example 13, L-Malic Acid Salt of (+)-3-(2,3-difluorophenyl)-3-methoxypyrrolidine]",–,–,–,–,–,–,−0.07,0.00,−0.13,−0.08,0.00,−0.22,−0.06,0.07,0.40,34.37,–
"COC1(c2cccc(F)c2F)CCNC1.O=C(O)C(=O)O (stereo not drawn) [Reference Example 19, oxalic Acid Salt of (+)-3-(2,3-difluorophenyl)-3-methoxypyrrolidine, reference compound]",–,–,–,–,–,–,0.00,0.00,−0.21,0.00,0.11,−0.05,0.00,−0.05,−0.15,0.26,28
